Laboratory results from patent publication US5137914A, “Sulfonylamino substituted bicyclo [2.2.1]heptane hydroxamic acid derivatives useful as pharmaceuticals” (Shionogi & Co., Ltd., priority 1990, dated 1992).

Experiments:
[1] = test system: rat washed platelets (thromboxane A2-receptor antagonistic activity); assay: Inhibitory Effect on Platelet Aggregation in Rat (washed platelets, collagen-induced, in vitro); assay type: cell-based, rat (Sprague-Dowley); details: 0.05 h, collagen inducer, 37° C., 3 minutes after inducer, Compounds Ia and Ib used as their sodium salts, read-out: Inhibition for Platelet Aggregation IC50
Procedure: (§1) From the abdominal artery of a male rat (Sprague-Dowley, 7 weeks old) was collected 10 ml of blood with a plastic syringe containing 1.5 ml of ACD (85 mM of sodium citrate, 70 mM of citric acid, 110 mM of glucose) and 20 μg of prostaglandin E1. The blood was placed in a plastic test tube, shaken moderately turning and centrifuged for 10 minutes at 160×g to give platelet rich plasma (PRP). To the prepared PRP was added apyrase (25 μg/ml) and the mixture was layered on 40% bovine serum albumin. The resulting mixture was centrifuged at 1200×g for 25 minutes. The suspension of the prepared platelet pellets in a small amount of a buffer (137 mM of NaCl, 2.7 mM of KCl, 1.0 mM MgCl2, 3.8 mM of NaH2 PO4, 3.8 mM of Hepes, 5.6 mM of glucose, 0.035% of bovine serum albumin, pH 7.35) was applied on 10 ml of Sepharose 2B column and eluted with such a buffer to prepare washed platelets.
(§2) The platelet aggregation reaction was measured by the aggregometer (NKK HEMA TRACER 1 MODEL PAT-6A.6M, Nikkou Bioscience).
In a measuring curvette was placed 245 μl of the washed platelets which concentration was adjusted to […] and set in the aggregometer. The adjusted washed platelets were stirred (1000 rpm) at 37° C. and 3.8 μl of 0.1M CaCl2 was added thereto. One minute later, 0.5 μl of a solution of a test compound in dimethylsulfoxide was added and 2 minutes later, 1 μl of collagen (Collagen reagent Horm®, HORMON-CHEMIE Munchen GMBH, final concentration […]) was added as an inducer for platelet aggregation. Platelet aggregation was monitored in terms of the increase and decrease in light transmission.
Concentration of 50% inhibition for platelet aggregation was calculated from the rate of aggregation. (The rate corresponds to light transmission of a sample which was measured at 3 minutes after adding the inducer for platelet aggregation, provided that light transmissions of the washed platelets and the buffer samples are taken as 0% and 100%, respectively.)

rat platelet = assay: Partial agonistic activity (activity to induce the shape change in rat platelet); assay type: cell-based; details: decrease in light transmission, rat washed platelets, 0.1M CaCl2, read-out: ED50 of partial agonistic activity (shape change)
Procedure: as §1, §2
Furthermore, partial agonistic activity (activity to induce the shape change in rat platelet) was determined according to the method used for the reaction of platelet aggregation. To the washed platelets was added 0.1M CaCl2 aqueous solution and 1 minute later, the decrease in light transmission caused by the test compounds was determined to estimate the activity.

mice = assay: Respiration inhibitory activity on intravenous injection to mice (index of partial agonistic activity); assay type: in vivo; details: intravenously injected to mice

SMILES | IC50 [1] | EC50 (rat platelet) | partial agonistic activity by determination of respiration inhibitory activity (mice)
Cc1ccc(S(=O)(=O)N[C@H]2[C@H]3CC[C@H](C3)[C@@H]2C/C=C\CCCC(=O)O)cc1 [Rf. Compd., reference compound] | 0.002 µM | 0.001 µM | 
O=C(CCC/C=C\C[C@H]1[C@@H]2CC[C@@H](C2)[C@@H]1NS(=O)(=O)c1ccccc1)NO [Ia, (1R,2S,3S,4S)-(5Z)-7-(3-phenylsulfonyl-aminobicyclo[2.2.1]hept-2-yl)-5-heptenohydroxamic acid] | 0.012 µM |  | substantially no partial agonistic activity
O=C(CCC/C=C\C[C@H]1[C@@H]2CC[C@@H](C2)[C@@H]1NS(=O)(=O)c1ccc(O)cc1)NO [Ib, (1R,2S,3S,4S)-(5Z)-7-[3-(4-hydroxyphenylsulfonylamino)bicyclo[2.2.1]hept-2-yl]-5-heptenohydroxamic acid] | 0.01 µM |  | 
CN(O)C(=O)CCC/C=C\C[C@H]1[C@@H]2CC[C@@H](C2)[C@@H]1NS(=O)(=O)c1ccccc1 [If, (1R, 2S, 3S, 4S)-(5Z) -N-methyl-7-(3-phenylsulfonylaminobicyclo[2.2.1]hept-2-yl)-5-heptenohydroxamic acid] | 0.02 µM |  | 
O=C(CCC/C=C\[C@@H]1[C@H]2CC[C@H](C2)[C@H]1CNS(=O)(=O)c1ccc(Br)cc1)NO [Ic, (1S, 2S, 3R, 4R)-(5Z)-6-[3-(4-bromophenylsulfonylaminomethyl)bicyclo[2.2.1]hept-2-yl]-5-hexenohydroxamic acid] | 0.02 µM |  | 
CONC(=O)CCC/C=C\C[C@H]1[C@@H]2CC[C@@H](C2)[C@@H]1NS(=O)(=O)c1ccccc1 [Ie, (1R, 2S, 3S, 4S)-(5Z)-0-methyl-7-[3-phenylsulfonylaminobicyclo[2.2.1]hept-2-yl]-5-heptenohydroxamic acid] | 0.06 µM |  | 
